Data taken from patent publication US10751311B2, “Compositions and methods of using modified release solabegron for lower urinary tract symptoms” (VELICEPT THERAPEUTICS, INC., priority 2014, dated 2020).

Experiments:
beta-3 adrenoceptor [1] = target: T1, beta-3 adrenoceptor (Rattus norvegicus, UniProt P26255); assay: Determination of EC90 concentration to inhibit EFS-induced contraction in rat isolated bladder (pilot CCRC); assay type: cell-based; settings: PSS with 1 μM prazosin and 30 nM ICI118551, EFS 15 Hz
T1 construct: The bladder longitudinal smooth muscle, with the urothelium still attached were mounted in 25 ml organ baths; from tissue; host or cells: isolated bladder longitudinal smooth muscle strips (urothelium attached) from male CD rats
Method: Macroscopically normal bladders obtained from Male CD rats (220-250 g) were used. […] Each bladder was cleaned free of surrounding connective tissue and halved longitudinally. The bladder longitudinal smooth muscle, with the urothelium still attached were mounted in 25 ml organ baths containing physiological saline solution (PSS) (composition: 119.0 mM NaCl, 4.7 mM KCl, 1.2 mM MgSO4, 24.9 mM NaHCO3, 1.2 mM KH2PO4, 2.5 mM CaCl2 and 11.1 mM glucose) supplemented with 1 μM prazosin (α1-adrenoceptor antagonist) and 30 nM ICI118551 (β2-adrenoceptor antagonist), aerated with 95% O2/5% CO2 gas mix, warmed and maintained at approximately 37° C. throughout the experiment. Changes in force production were recorded using transducers. […]
In initial experiments the parameters for the EFS were assessed by performing a frequency curve to determine a frequency that would give a response that was approximately 80% of the response seen to 80 mM KCl. Optimal EFS parameters were determined to be: 30 Volts, square pulse of 0.1 ms, train of 4 seconds every 120 seconds, 15 Hz. […]
Pilot studies to determine EC90 concentrations of the test compounds were performed. […] From the data obtained in these experiments, EC90 concentrations of the test compounds were determined for use in subsequent experiments. […]

beta-3 adrenoceptor [2] = target: T1, beta-3 adrenoceptor; assay: Receptor desensitization: CCRC after incubation with the EC90 concentration and PSS washout, EFS-stimulated rat bladder strips; assay type: cell-based
Method: Macroscopically normal bladders obtained from Male CD rats (220-250 g) were used. […] Each bladder was cleaned free of surrounding connective tissue and halved longitudinally. The bladder longitudinal smooth muscle, with the urothelium still attached were mounted in 25 ml organ baths containing physiological saline solution (PSS) (composition: 119.0 mM NaCl, 4.7 mM KCl, 1.2 mM MgSO4, 24.9 mM NaHCO3, 1.2 mM KH2PO4, 2.5 mM CaCl2 and 11.1 mM glucose) supplemented with 1 μM prazosin (α1-adrenoceptor antagonist) and 30 nM ICI118551 (β2-adrenoceptor antagonist), aerated with 95% O2/5% CO2 gas mix, warmed and maintained at approximately 37° C. throughout the experiment. Changes in force production were recorded using transducers. After mounting, the bladder halves were allowed to equilibrate for at least 30 min before they were set to a stable tension of approximately 1.0 g. The tissue was then allowed to equilibrate over at least a 60 min period with washes every 15 min.
In initial experiments the parameters for the EFS were assessed by performing a frequency curve to determine a frequency that would give a response that was approximately 80% of the response seen to 80 mM KCl. Optimal EFS parameters were determined to be: 30 Volts, square pulse of 0.1 ms, train of 4 seconds every 120 seconds, 15 Hz. This frequency was then used to stimulate the tissue for all subsequent experiments. The viability of bladder strips was tested by stimulating the tissue with EFS for minimum of ten minutes.
The bladder muscle strips were incubated with the EC90 determined for each test compound in the pilot studies, for a period of 1 or 3 hr. Following compound incubation, the tissues were washed with PSS for a period of 1, 3 or 6 hr, with washes approximately every 15 min, to remove the drug. At the end of the final wash period the tissues were stimulated with EFS, and left to equilibrate for at least 30 min. A CCRC was then performed in each tissue. Tissue responses were calculated as the mean (SEM) and expressed as percentage of EFS induced tone.
Tissues were incubated with the EC90 concentration of the test compounds for one hr followed by one hr, three hr or six hr of washing with PSS. […] This EFS-induced potentiation of bladder contraction from baseline was not observed with solabegron.
In the next series of experiments, tissues were incubated with the EC90 concentration of the test compounds for three hr followed by either one hr, three hr or six hr of washing with PSS.

[3] = pH-dependent solubility of solabegron; assay type: physicochemical
Text: (§1) For example, some compounds are differentially absorbed in different regions of the GI tract. […] Under these improved conditions, a second release of solabegron and absorption will result. Additionally, methods for the release of solabegron in the distal GI tract based on pH are presented herein.

[4] = women with moderate to severe OAB; cited from earlier work
[5] = Absorption of solabegron in regions of the GI tract; assay type: in vivo; settings: solabegron and pharmaceutical salts thereof
Text: as §1

[6] = three hr incubation with EC90 concentration, one hr of washing

T1 sequence (P26255 whole entry): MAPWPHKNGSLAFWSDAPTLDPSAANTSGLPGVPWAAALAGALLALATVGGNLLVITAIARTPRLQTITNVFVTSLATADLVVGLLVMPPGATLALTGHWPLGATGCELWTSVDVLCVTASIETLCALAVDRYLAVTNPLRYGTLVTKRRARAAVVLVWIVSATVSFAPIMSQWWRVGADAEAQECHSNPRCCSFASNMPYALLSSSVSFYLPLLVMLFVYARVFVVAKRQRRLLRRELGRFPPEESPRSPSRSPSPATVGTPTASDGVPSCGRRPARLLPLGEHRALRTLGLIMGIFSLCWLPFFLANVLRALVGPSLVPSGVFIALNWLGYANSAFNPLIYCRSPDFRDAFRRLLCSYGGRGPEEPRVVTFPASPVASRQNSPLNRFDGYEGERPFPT

Solubility [3] | Structure (SMILES) | EC90 (beta-3 adrenoceptor [1]) | Response to agonist (CCRC, reduction of EFS-induced tone) versus vehicle-incubated tissue (beta-3 adrenoceptor [2]; [6]) | Effect on symptoms of overactive bladder [4] | Safety, tolerability, adverse events compared to placebo [4] | Absorption in the GI tract [5] | Response to agonist (CCRC, reduction of EFS-induced tone) versus vehicle-incubated tissue (beta-3 adrenoceptor [2]; one hr incubation with EC90 concentration, one hr of washing) | Response to agonist (CCRC, reduction of EFS-induced tone) versus vehicle-incubated tissue (beta-3 adrenoceptor [2]; one hr incubation with EC90 concentration, three hr of washing, higher concentrations) | Response to agonist (CCRC, reduction of EFS-induced tone) versus vehicle-incubated tissue (beta-3 adrenoceptor [2]; three hr incubation with EC90 concentration, three hr of washing, highest concentrations)
 | C[C@H](Cc1ccc2c(c1)OC(C(=O)[O-])(C(=O)[O-])O2)NC[C@H](O)c1cccc(Cl)c1.[Na+].[Na+] [CL-316,243, reference compound] | 42 nM | significantly attenuated |  |  |  |  |  | 
pH-dependent solubility | O=C(O)c1cccc(-c2cccc(NCCNC[C@H](O)c3cccc(Cl)c3)c2)c1 [solabegron, 3′-[(2-{[(2R)-2-(3-chlorophenyl)-2-hydroxyethyl]amino}ethyl)amino]biphenyl-3-carboxylic acid] | 1000 nM | significantly attenuated | significantly reduce the symptoms of overactive bladder | safe, well-tolerated, and does not demonstrate significant differences in adverse events as compared to placebo | optimum absorption in the proximal GI tract | significantly attenuated | significantly attenuated | significantly attenuated
